Results on one compound are retold here after patent US20250177341A1, “DIETARY TRIPROPIONIN SUPPLEMENTATION TO REDUCE ADIPOSITY AND IMPROVE GLUCOSE HOMEOSTASIS” (Wisconsin Alumni Research Foundation, priority 2023, published 2025).

Assay [1] in a line: Experiment 2: obese HFD-fed mice switched to tripropionin diet, body weight and body composition. The following applies: mouse, in vivo. Here is the method: (§1) We next tested the anti-adipogenic effects of tripropionin in metabolically challenged mice. To do this, we fed a HFD for 10 weeks to induce insulin resistance and obesity and then switched mice to either the tripropionin or glycerol diet for 5 weeks (FIG. 2A). […] Mice were monitored in metabolic cages to measure respiratory quotient (RQ) for the initial 48 hours after diet change.
(§2) Experiment 2: Male C57BL/6J mice were ordered from Jackson Laboratories (Bar Harbor, ME) maintained on a chow diet and housed in a chlorinated water rack system. Mice were switched to the HFD and maintained on this diet for 10 weeks at which point mice were fed either the glycerol or the tripropionin diets (n=6 mice per group). Mice were transferred to singly housed metabolic cages, as described above, to measure respiratory quotient, body weight, food intake, and energy expenditure. Five weeks after diet change mice underwent an OGTT and then an ITT one week later.

A short description of assay [2]: Experiment 1: high-fat diet supplemented with tripropionin, body weight, food consumption, body composition by NMR. Also on record: species or system mice. The following applies: mouse, in vivo.
Text: Experiment 1: Male C57BL/6J mice were ordered from Jackson Laboratories (Bar Harbor, ME) maintained on chow (Teklad 8604, Inotiv, Madison, WI) and housed in a chlorinated water rack system in cages with cornhusk bedding and ALPHA-twist™. At 11 weeks of age, the mice were switched to either a glycerol (TD220541) or tripropionin diet (TD220540) from Envigo (Madison, WI) with a sample size of 6 mice per treatment. […] Mice were maintained on their respective diets for an additional 8 weeks and then transferred to single-housed metabolic cages (Promethion Core system, Sable Systems International, North Las Vegas, NV) where body weight food intake and activity level was monitored. During this period, fat and lean mass were monitored using nuclear magnetic resonance (NMR) machine fitted for mice (LF90 Body Composition Analyzer, Bruker Corporation, Billerica, MA). […]
Assay [3] in a line: Experiment 3: gnotobiotic mice colonized with human fecal microbiota, body weight. The following applies: mouse, in vivo.
Text: To check whether the effects of tripropionin supplementation are consistent in the context of a human microbiome, we used a gnotobiotic mouse model colonized with human fecal microbiota. We colonized germ-free mice with a complex community of human fecal microbiota, induced metabolic dysregulation though feeding a high-fat diet for 8 weeks, and subjected the mice to a tripropionin- or glycerol-supplemented diet (FIG. 3A).
At 5 and 6 weeks of age mice were placed in Allentown Sentry SPP IVC rack system (Allentown Inc., Allentown, NJ) and fed a HFD (TD08811, Envigo). Mice were then colonized with fecal microbiota from a human donor fecal specimen via gavage with a fecal slurry. The fecal slurry was prepared by collecting 200-500 mg of frozen feces and adding it to anaerobic CMM broth in an anaerobic chamber. The mixture was vortexed for 1 minute and then placed on ice until gavaging (less than 1 hour after preparation). Mice were maintained on the HFD for an additional 6 weeks before being switched to either the glycerol or tripropionin diets (n=4-5 per group). Four weeks after diet change mice were subjected to an OGTT followed by an ITT a week later. Mice were euthanized one week after ITT.
Assay [4] in a line: Experiment 1: oral glucose tolerance test. The following applies: four weeks after diet change, vs glycerol-fed mice. The assay is classed as in vivo. On the procedure: To assess the effect of tripropionin on adiposity and glucose homeostasis, we fed 11-week-old male C57BL/6J mice a high-fat diet (45% kcal from fat) (HFD) supplemented with either 5.3% tripropionin (w/w) or 5.3% glycerol as a control. Mice were maintained on these diets for 13 weeks, during which food consumption and body weight were measured and an oral glucose tolerance test (OGTT) and insulin tolerance test (ITT) were performed (FIG. 1A). Additionally, body composition was monitored via NMR during the last 2 weeks before sacrifice.
Experiment 1: Male C57BL/6J mice were ordered from Jackson Laboratories (Bar Harbor, ME) maintained on chow (Teklad 8604, Inotiv, Madison, WI) and housed in a chlorinated water rack system in cages with cornhusk bedding and ALPHA-twist™. […] Mice were maintained on their respective diets for an additional 8 weeks and then transferred to single-housed metabolic cages (Promethion Core system, Sable Systems International, North Las Vegas, NV) where body weight food intake and activity level was monitored. During this period, fat and lean mass were monitored using nuclear magnetic resonance (NMR) machine fitted for mice (LF90 Body Composition Analyzer, Bruker Corporation, Billerica, MA). […]
Prior to OGTT, mice were placed in fresh cages fasted for 4 hours. […] Blood glucose levels were measured at regular intervals between 15 and 120 minutes.

The nature of assay [5]: Experiment 1: insulin tolerance test. Also on record: species or system mice. The following applies: mouse, in vivo.
Text: Experiment 1: Male C57BL/6J mice were ordered from Jackson Laboratories (Bar Harbor, ME) maintained on chow (Teklad 8604, Inotiv, Madison, WI) and housed in a chlorinated water rack system in cages with cornhusk bedding and ALPHA-twist™. At 11 weeks of age, the mice were switched to either a glycerol (TD220541) or tripropionin diet (TD220540) from Envigo (Madison, WI) with a sample size of 6 mice per treatment. […] One week later, mice were subjected to an ITT. […] Mice were sacrificed at 24 weeks of age.
The ITT was performed one week after the OGTT. Mice were fasted for 4 hours in fresh cages and baseline blood glucose levels were taken from tail blood. Insulin was administered at a rate of 0.75 IU per Kg body weight via IP injection. Blood glucose levels were monitored as described for OGTT. Insulin tolerance curves are expressed as the relative ratio of blood glucose from the baseline.
Assay [6] can be described thus: Experiment 2: respiratory quotient in metabolic cages. Also noted: species or system mice. The following applies: mouse, in vivo. Here is the method:
as §1, §2

Assay [7] can be described thus: Experiment 3: insulin tolerance test in humanized gnotobiotic mice. The following applies: mouse, in vivo.
Text: We colonized germ-free mice with a complex community of human fecal microbiota, induced metabolic dysregulation though feeding a high-fat diet for 8 weeks, and subjected the mice to a tripropionin- or glycerol-supplemented diet (FIG. 3A).
Experiment 3: Germ-free (GF) male mice (C57BL/6J) were housed in sterile isolators and maintained on autoclaved chow (LabDiet 5021; LabDiet, St. Louis, MO) and sterile water ad libitum. GF cages contained Alpha-dri® (Shepherd Specialty Papers, Kalamazoo, MI) bedding along with paper huts (Bio-Huts, Bio-Serv, Flemington, NJ) and ALPHA-twist™ (Shepherd Specialty Papers) for enrichment. Monthly tests were conducted in each isolator to confirm GF status of the mice. These included a growth test of feces in rich media for 7 days at 37° C. and checking for amplification of the 16S rRNA gene using universal primers. At 5 and 6 weeks of age mice were placed in Allentown Sentry SPP IVC rack system (Allentown Inc., Allentown, NJ) and fed a HFD (TD08811, Envigo). Mice were then colonized with fecal microbiota from a human donor fecal specimen via gavage with a fecal slurry. […]
The ITT was performed one week after the OGTT. […] Blood glucose levels were monitored as described for OGTT. Insulin tolerance curves are expressed as the relative ratio of blood glucose from the baseline.

The structures appear in SMILES notation.

As for `CCC(=O)OCC(COC(=O)CC)OC(=O)CC` [tripropionin, 2,3-di(propanoyloxy) propyl propanoate], the values for the body weight entry in assay [1], in assay [2] and in assay [3] were “reduced body weight”, “significantly reduced body weight” and “reduced body weight”, respectively. In addition, the “fat mass (NMR)” value in assay [1] is “reduction in fat mass”; in assay [2], “primarily due to differences in fat mass”. Also, the “onset of body weight reduction” value in assay [1] is given as “significant differences observed just three days after the diet change”. Moreover, the “glucose tolerance (OGTT)” value in assay [4] is “improved glucose tolerance”. For the same compound, the “insulin sensitivity (ITT)” value in assay [5] and in assay [7] was “improved insulin sensitivity” in each case. For the same compound, the “respiratory quotient (RQ)” value in assay [6] was “reduced”.
